Key:
Assay in all cases: biochemical
Format in all cases: biochemical
Conditions in all cases: 15 nM tritium labelled cAMP, 1 hr at room temperature
PDE1B = PDE1B (Homo sapiens (Human), UniProt Q01064)
From the text: (§1) Table 1 lists the IC50 value for inhibition of PDE1 by the compounds of the invention. […] PDE1 assays are described in the Experimental Section.

PDE1A = PDE1A (Homo sapiens (Human), UniProt P54750)
From the text: as §1

PDE1C = PDE1C (Homo sapiens (Human), UniProt Q14123)
From the text: as §1

Sequence of PDE1C (Q14123 whole entry): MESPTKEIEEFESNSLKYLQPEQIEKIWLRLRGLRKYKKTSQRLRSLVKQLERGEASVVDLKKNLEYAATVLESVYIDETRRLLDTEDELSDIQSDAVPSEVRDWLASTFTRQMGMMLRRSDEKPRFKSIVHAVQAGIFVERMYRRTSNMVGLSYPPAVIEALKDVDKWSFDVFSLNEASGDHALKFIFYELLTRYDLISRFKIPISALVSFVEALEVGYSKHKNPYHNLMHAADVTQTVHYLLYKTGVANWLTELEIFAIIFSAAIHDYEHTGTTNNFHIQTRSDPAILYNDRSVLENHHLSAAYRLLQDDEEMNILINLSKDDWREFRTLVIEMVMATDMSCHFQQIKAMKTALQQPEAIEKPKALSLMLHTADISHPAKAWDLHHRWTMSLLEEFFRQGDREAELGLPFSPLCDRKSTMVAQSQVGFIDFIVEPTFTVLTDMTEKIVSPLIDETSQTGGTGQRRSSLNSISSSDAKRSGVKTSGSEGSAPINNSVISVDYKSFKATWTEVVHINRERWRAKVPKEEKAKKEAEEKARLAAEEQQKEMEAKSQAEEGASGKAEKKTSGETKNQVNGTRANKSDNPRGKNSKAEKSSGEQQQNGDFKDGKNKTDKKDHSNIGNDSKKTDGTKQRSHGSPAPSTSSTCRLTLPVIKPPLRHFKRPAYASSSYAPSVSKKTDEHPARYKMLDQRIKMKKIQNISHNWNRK
Sequence of PDE1A (P54750 whole entry): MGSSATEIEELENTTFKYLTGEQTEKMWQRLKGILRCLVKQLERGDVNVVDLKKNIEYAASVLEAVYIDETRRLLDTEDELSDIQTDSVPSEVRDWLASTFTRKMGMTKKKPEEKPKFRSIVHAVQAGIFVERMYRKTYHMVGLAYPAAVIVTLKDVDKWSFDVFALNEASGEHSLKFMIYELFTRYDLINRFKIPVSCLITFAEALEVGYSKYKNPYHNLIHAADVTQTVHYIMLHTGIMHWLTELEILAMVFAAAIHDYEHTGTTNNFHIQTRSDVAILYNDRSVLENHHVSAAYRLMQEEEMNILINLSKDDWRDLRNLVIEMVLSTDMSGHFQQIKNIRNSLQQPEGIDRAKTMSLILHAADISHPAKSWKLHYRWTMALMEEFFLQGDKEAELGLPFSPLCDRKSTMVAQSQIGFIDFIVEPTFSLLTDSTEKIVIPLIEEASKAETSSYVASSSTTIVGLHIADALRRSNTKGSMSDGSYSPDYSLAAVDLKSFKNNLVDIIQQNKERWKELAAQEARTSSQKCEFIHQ
Sequence of PDE1B (Q01064 whole entry): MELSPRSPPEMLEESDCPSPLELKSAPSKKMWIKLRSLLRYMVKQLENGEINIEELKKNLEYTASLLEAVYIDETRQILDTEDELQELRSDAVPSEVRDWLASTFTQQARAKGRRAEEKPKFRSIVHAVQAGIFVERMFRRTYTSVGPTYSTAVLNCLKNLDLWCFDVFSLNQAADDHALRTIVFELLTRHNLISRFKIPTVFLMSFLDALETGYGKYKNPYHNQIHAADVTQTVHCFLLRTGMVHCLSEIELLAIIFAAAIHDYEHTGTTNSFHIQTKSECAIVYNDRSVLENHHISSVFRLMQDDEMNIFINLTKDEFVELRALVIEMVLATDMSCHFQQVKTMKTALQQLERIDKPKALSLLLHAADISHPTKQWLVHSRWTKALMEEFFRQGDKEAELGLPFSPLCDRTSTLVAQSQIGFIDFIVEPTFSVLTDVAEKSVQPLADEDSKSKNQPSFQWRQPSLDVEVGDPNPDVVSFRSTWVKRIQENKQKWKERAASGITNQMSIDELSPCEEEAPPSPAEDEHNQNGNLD

Compound	IC50 (PDE1B) [nM]	IC50 (PDE1A) [nM]	IC50 (PDE1C) [nM]
CCOc1nnccc1-c1cc(NCc2ncccn2)c2c(n1)c(C)nn2C(C)C [Example 1b, 5-(3-ethoxypyridazin-4-yl)-1-isopropyl-3-methyl-N-(pyrimidin-2-ylmethyl)pyrazolo[4,3-b]pyridin-7-amine]	1.3	11	48
CCOc1ncccc1-c1cc(NCc2cccc3nsnc23)c2c(n1)c(C)nn2C(C)C [Example 2a, N-(2,1,3-benzothiadiazol-4-ylmethyl)-5-(2-ethoxy-3-pyridyl)-1-isopropyl-3-methyl-pyrazolo[4,3-b]pyridin-7-amine]	3.4	53	140
COc1nnccc1-c1cc(NCc2cnn(C)c2)c2c(n1)c(C)nn2C(C)C [Example 2b, 1-isopropyl-5-(3-methoxypyridazin-4-yl)-3-methyl-N-[(1-methylpyrazol-4-yl)methyl]pyrazolo[4,3-b]pyridin-7-amine]	8.1	45	49
CCOc1nnccc1-c1cc(NCc2cnn(C)c2)c2c(n1)c(C)nn2C(C)C [Example 3b, 5-(3-ethoxypyridazin-4-yl)-1-isopropyl-3-methyl-N-[(1-methylpyrazol-4-yl)methyl]pyrazolo[4,3-b]pyridin-7-amine]	1.1	6.1	27
CCOc1ncccc1-c1cc(NCc2cccn3ccnc23)c2c(n1)c(C)nn2C(C)C [Example 4a, 5-(2-ethoxy-3-pyridyl)-N-(imidazo[1,2-a]pyridin-8-ylmethyl)-1-isopropyl-3-methyl-pyrazolo[4,3-b]pyridin-7-amine]	0.48	6.6	22
CCCOc1nnccc1-c1cc(NCc2cnn(C)c2)c2c(n1)c(C)nn2C(C)C [Example 4b, 1-isopropyl-3-methyl-N-[(1-methylpyrazol-4-yl)methyl]-5-(3-propoxypyridazin-4-yl)pyrazolo[4,3-b]pyridin-7-amine]	0.35	3.2	18
CCOc1ncccc1-c1cc(NCc2cccn3nccc23)c2c(n1)c(C)nn2C(C)C [Example 5a, 5-(2-ethoxy-3-pyridyl)-1-isopropyl-3-methyl-N-(pyrazolo[1,5-a]pyridin-4-ylmethyl)pyrazolo[4,3-b]pyridin-7-amine]	7.1	53	95
CCOc1ncccc1-c1cc(NCc2cccc3ncnn23)c2c(n1)c(C)nn2C(C)C [Example 6a, 5-(2-ethoxy-3-pyridyl)-1-isopropyl-3-methyl-N-([1,2,4]triazolo[1,5-a]pyridin-5-ylmethyl)pyrazolo[4,3-b]pyridin-7-amine]	1.4	18	64
CCOc1ncccc1-c1cc(NCc2cccc3nc(C)nn23)c2c(n1)c(C)nn2C(C)C [Example 7a, 5-(2-ethoxy-3-pyridyl)-1-isopropyl-3-methyl-N-[(2-methyl-[1,2,4]triazolo[1,5-a]pyridin-5-yl)methyl]pyrazolo[4,3-b]pyridin-7-amine]	0.93	11	35
CCOc1ncccc1-c1cc(NCc2cccn3cncc23)c2c(n1)c(C)nn2C(C)C [Example 8a, 5-(2-ethoxy-3-pyridyl)-N-(imidazo[1,5-a]pyridin-8-ylmethyl)-1-isopropyl-3-methyl-pyrazolo[4,3-b]pyridin-7-amine]	0.18	3.2	9.1
CCOc1nnccc1-c1cc(NCc2nnc(C)o2)c2c(n1)c(C)nn2C(C)C [Example 8b, 5-(3-ethoxypyridazin-4-yl)-1-isopropyl-3-methyl-N-[(5-methyl-1,3,4-oxadiazol-2-yl)methyl]pyrazolo[4,3-b]pyridin-7-amine]	14	97	320
CCOc1ncccc1-c1cc(NCc2cccc3ncoc23)c2c(n1)c(C)nn2C(C)C [Example 9a, N-(1,3-benzoxazol-7-ylmethyl)-5-(2-ethoxy-3-pyridyl)-1-isopropyl-3-methyl-pyrazolo[4,3-b]pyridin-7-amine]	5.3	45	82
